Assay results: ChEMBL document CHEMBL1126333, “Conversion of NSAIDS into balanced dual inhibitors of cyclooxygenase and 5-lipoxygenase” (Bioorg Med Chem Lett, 1992)

Experiments:
[1] = molecular target: Cyclooxygenase (Rattus norvegicus) (UniProt P35355+Q63921); assay: In vitro inhibitory activity against Cyclooxygenase was determined at 16 uM; type: protein assay
[2] = molecular target: T1, Polyunsaturated fatty acid 5-lipoxygenase (Rattus norvegicus) (UniProt P12527); assay: In vitro inhibitory activity against 5-lipoxygenase was determined at 16 uM
T1 sequence (whole entry): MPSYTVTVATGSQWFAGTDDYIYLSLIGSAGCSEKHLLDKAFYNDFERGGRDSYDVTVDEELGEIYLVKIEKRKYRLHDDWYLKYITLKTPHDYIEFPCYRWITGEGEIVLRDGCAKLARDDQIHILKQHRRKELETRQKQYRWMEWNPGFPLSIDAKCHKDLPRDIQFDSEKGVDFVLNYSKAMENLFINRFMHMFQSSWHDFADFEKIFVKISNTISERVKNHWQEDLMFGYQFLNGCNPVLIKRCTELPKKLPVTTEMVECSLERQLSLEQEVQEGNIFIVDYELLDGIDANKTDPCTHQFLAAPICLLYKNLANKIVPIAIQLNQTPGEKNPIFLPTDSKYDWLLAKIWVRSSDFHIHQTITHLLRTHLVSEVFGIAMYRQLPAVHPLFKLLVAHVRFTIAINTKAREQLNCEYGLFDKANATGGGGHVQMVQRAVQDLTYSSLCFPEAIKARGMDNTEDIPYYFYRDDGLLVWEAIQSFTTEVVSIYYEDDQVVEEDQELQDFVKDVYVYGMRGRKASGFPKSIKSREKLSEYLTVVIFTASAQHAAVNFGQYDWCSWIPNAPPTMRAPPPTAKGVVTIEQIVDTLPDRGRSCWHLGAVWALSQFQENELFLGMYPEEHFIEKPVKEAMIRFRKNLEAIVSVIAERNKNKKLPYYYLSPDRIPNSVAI

[3] = molecular target: T2, Polyunsaturated fatty acid 5-lipoxygenase (Rattus norvegicus, UniProt P12527); assay: In vitro inhibitory activity against 5-lipoxygenase was determined
T2 sequence (P12527 whole entry): T1 sequence (whole entry)

Cyclooxygenase = molecular target: T3, Cyclooxygenase (Rattus norvegicus, UniProt P35355+Q63921); assay: In vitro inhibitory activity against Cyclooxygenase was determined; type: protein assay
T3 sequence (P35355 whole entry): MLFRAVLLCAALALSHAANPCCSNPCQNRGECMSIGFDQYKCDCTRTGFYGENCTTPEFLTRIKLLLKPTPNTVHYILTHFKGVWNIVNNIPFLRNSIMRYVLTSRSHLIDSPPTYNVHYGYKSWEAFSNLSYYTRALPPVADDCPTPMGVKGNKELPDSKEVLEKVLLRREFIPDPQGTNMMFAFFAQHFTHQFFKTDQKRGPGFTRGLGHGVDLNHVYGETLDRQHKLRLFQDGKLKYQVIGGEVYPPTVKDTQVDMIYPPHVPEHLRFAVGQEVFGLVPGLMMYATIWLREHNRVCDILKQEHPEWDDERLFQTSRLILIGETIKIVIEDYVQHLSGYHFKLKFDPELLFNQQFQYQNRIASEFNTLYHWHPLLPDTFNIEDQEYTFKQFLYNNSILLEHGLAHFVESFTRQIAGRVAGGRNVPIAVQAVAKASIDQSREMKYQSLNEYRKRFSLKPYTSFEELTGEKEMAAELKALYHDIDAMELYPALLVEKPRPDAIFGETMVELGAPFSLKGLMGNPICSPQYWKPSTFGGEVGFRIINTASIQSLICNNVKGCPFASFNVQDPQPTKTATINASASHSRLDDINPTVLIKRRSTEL
T3 sequence (Q63921 whole entry): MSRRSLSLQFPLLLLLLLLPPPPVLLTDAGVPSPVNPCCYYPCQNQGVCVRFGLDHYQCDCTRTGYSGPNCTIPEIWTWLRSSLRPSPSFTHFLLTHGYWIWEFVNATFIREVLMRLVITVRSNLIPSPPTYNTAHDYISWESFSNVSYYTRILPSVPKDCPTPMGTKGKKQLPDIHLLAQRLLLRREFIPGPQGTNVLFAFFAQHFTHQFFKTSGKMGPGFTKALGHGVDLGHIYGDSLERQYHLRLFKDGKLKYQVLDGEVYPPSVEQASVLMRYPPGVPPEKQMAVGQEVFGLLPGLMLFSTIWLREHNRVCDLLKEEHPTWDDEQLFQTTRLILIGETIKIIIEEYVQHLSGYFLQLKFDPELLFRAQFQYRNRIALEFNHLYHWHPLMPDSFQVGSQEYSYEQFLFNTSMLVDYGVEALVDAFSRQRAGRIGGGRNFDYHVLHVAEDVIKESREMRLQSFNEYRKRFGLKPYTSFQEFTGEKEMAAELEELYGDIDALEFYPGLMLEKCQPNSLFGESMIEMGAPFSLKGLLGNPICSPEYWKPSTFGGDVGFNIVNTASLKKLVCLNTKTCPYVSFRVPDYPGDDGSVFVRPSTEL

Structure (SMILES)	inhibition [1]	inhibition [2]	IC50 [3]	IC50 (Cyclooxygenase)
Cc1cccc(Nc2ccccc2-c2nnc(O)o2)c1C	< 40%	< 40%		
FC(F)(F)c1cccc(Nc2ncccc2-c2nnc(S)o2)c1			990 nM	190 nM
Cc1ccc(Cl)c(Nc2ccccc2-c2nnc(S)s2)c1Cl				1750 nM
FC(F)(F)c1cccc(Nc2ccccc2-c2n[nH]c(=S)o2)c1				270 nM
FC(F)(F)c1cccc(Nc2ccccc2-c2n[nH]c(=S)s2)c1				850 nM
Cc1ccc(Cl)c(Nc2ccccc2-c2nnc(S)o2)c1Cl				700 nM

Further lines, with some results ahead:

inhibition [1]	inhibition [2]	Structure (SMILES)	IC50 [3]	IC50 (Cyclooxygenase)
< 40%	100%	Oc1nnc(-c2ccccc2Nc2cccc(C(F)(F)F)c2)s1		
< 40%	< 40%	Cc1ccc(Cl)c(Nc2ccccc2-c2nnc(O)o2)c1Cl		
